Two substances from patent US11919965B2, “Methods of treating multiple myeloma with bispecific anti-BCMA x anti-CD3 antibodies” (Regeneron Pharmaceuticals, Inc., priority 2019, dated 2024) can be followed below.

Common to all, as to experiment: Jurkat/NFATLuc reporter bioassay (T-cell activation)
Common to all, as to type: cell-based, human

For assay [1], the system named is Jurkat/NFATLuc.3C7 reporter cells with OPM-2 cells (BCMA positive). On the procedure:
(§1) Activity of the anti-BCMA×anti-CD3 bispecific antibodies were assessed in a Jurkat/NFATLuc reporter bioassay utilizing several cell lines with varying levels of BCMA surface expression. The Jurkat cells were engineered to express an NFAT-luciferase reporter (Jurkat/NFATLuc.3C7), and 50,000 Jurkat reporter cells were combined with 50,000 BCMA positive (Daudi, MM1-S, NCI-H929, OPM-2, RPMI-8226, MOLP-8, or Raji) or BCMA negative (HEK293) cells in Thermo Nunclon delta 96 well white microwell plates (Thermo Scientific, Cat #136102) in 50 ul of assay media (RPMI media with 10% FBS and 1% P/S/G). Three-fold serial dilutions of the BCMA×CD3 bispecific antibodies (mAb25441D or mAb25442D), or a bivalent anti-BCMA antibody (mAb21581) were immediately added in 50 uL of assay buffer. The plates were gently agitated and incubated in a 37° C., 5% CO2 incubator for 4-6 hours. NFAT-Luciferase activity was determined using Promega One-Glo (Cat #E6130) and a Perkin Elmer Envision plate reader. RLU were plotted in GraphPad Prism using a four-parameter logistic equation over a 12-point response curve to calculate EC50 values. The no antibody treatment condition for each dose-response curve is also included in the analysis as a continuation of the three-fold serial dilution and is represented as the lowest dose. The signal to noise (S:N) is determined by taking the ratio of the highest RLU on the curve to the lowest.

Assay [2] concerns Jurkat/NFATLuc.3C7 reporter cells with NCI-H929 cells (BCMA positive). On the procedure: as §1
In assay [3] the test system is Jurkat/NFATLuc.3C7 reporter cells with MOLP-8 cells (BCMA positive). On the procedure: as §1
The subject of assay [4] is Jurkat/NFATLuc.3C7 reporter cells with Daudi cells (BCMA positive). As to the method:
as §1

Consider “REGN5458: anti-BCMA×anti-CD3 bispecific antibody: mAb21581 BCMA heavy chain, mAb7221G CD3 heavy chain and common light chain; SEQ ID NOs 126, 127, 129”, for which the “S:N (highest RLU to lowest)” value in assay [1] stood at 8; in assay [2], 39.
In the case of “REGN5459: anti-BCMA×anti-CD3 bispecific antibody: mAb21581 BCMA heavy chain, mAb7221G20 CD3 heavy chain and common light chain; SEQ ID NOs 126, 128, 129”, the “S:N (highest RLU to lowest)” value in assay [3] is on record as 31; in assay [4] it was 25.
